Data from US10857085B2, “Preparations comprising carnosines” (Symrise AG, priority 2015, dated 2020).

Legend:
human fibroblasts [1] = assay: Synthesis of dermal macromolecules (GAG) in collagen gel containing human fibroblasts; assay type: cell-based; details: 0.5% by weight FCS + 0.01% by weight substance; for Density, 14 days: relative density of collagen gel (0=clear or white, 1=black)
Description: The dermis is composed of cells (fibroblasts and mast cells), tissue components (collagen and elastin) and so-called ground substances. These ground substances include, for example, glycosaminoglycan (GAG), hyaluronic acid, chondroitin sulfate, dermatan sulfate and glycoproteins. As a result of skin ageing, the intermolecular strength and elasticity of the dermis, and thus the tautness of the skin, is reduced. Likewise, the number of skin cells present, in particular fibroblasts, is reduced as the skin ages. The collagen fibers are fragmented over time, and the proportion of insoluble to soluble collagen increases. The fine dermal elastic fibers become coarse and are destroyed. The synthesis of GAG (glycosaminoglycan) is reduced. All these processes contribute to skin ageing and the manifestations thereof, such as wrinkles and lack of tautness of the skin.
The measuring method is based on staining macromolecules in a culture of human fibroblasts which, with type I collagen, forms a collagen gel or collagen lattice fibers. Certain regions of those fibers are quantified by means of staining reagents for the proportion of the mentioned macromolecules.
For that purpose, a suspension of human fibroblasts was mixed with a solution of type I collagen (1-2 mg/ml). This mixture was incubated in a defined nutrient medium (DMEM=Dulbecco minimum essential medium, Life Technologie Sarl) comprising 0.5 or 2% by weight fetal calf serum (FCS) for 14 days at 37° C. in a 5% CO2 atmosphere in Petri dishes (5 ml per dish) with the addition of different concentrations of the plant extracts to be tested.
The kinetics of the collagen gel […] was determined 2 to 3 times per week by measuring two perpendicular diameters on each collagen gel using a microscope with an image analysis system. The size of the area is shown in cm^2 in Table 8. After incubation for 14 days, the density of the collagen gel was determined by image analysis with a light source of visible light, by comparatively analyzing different gray stages. This is a relative determination of the density (0=clear or white and 1=black), which cannot be given a unit.
After an incubation period of 7 and 14 days, biopsies (tissue samples) were taken and histological sections of the collagen gel containing human fibroblasts were obtained. The synthesis of macromolecules was analyzed and quantified by the staining of glycosaminoglycan with PAS Alcian blue, for example from SIGMA, by the periodic acid-Schiff method (PAS) described in: Mowry R W, Anal. NY Adad. Sci. 106 Art 2, 402, 1963. The stimulation of the synthesis of macromolecules was evaluated in the immediate vicinity of fibroblasts. This zone is also referred to as the “perifibroblast area”.
The “perifibroblast” secretion, or the secretion of fibroblasts into the periphery, was quantified by an image analyzer by means of a microscope. Reactive structures in the “perifibroblast area” were detected, and the different gray stages were comparatively determined. The values of the gray stages were thereby subdivided from 0=white to 255=black. These parameters are directly proportional to the intensity of the synthesis of macromolecules and thus to the GAG content of the fibroblasts.
The results of the values of these parameters are shown in Table 3 below and are to be regarded directly as representative values for the synthesis activity of the fibroblasts. The content of GAGs is described as a relative value of the gray stage.

[2] = system: human fibroblasts and human keratinocytes; assay: Inhibition of apoptosis induced by growth factor deficiency (cell count, BrdU ELISA of cytoplasmic DNA fragments); assay type: cell-based; details: 0.001 % w/v, in comparison to the control = 100; for Content of DNA fragments: BrdU in cytoplasmic DNA fragments, based on a million cells
Description: Apoptosis, unlike necrosis, is the natural purposive cell death of specific undesired or damaged cells. It is an active process of the cells (suicide on command). In the case of skin ageing especially, a deficiency of growth factors in the skin leads to induced apoptosis of the skin cells. In the cells affected by apoptosis, the nuclear DNA is degraded by the specific enzyme endonuclease and the DNA fragments are passed into the cytoplasm.
The ability of carnosines to prevent apoptosis induced by a deficiency of growth factors in human skin cells was studied. These tests were carried out in vitro on human fibroblasts and human keratinocytes. The human cells were cultivated in a nutrient medium (DMEM=Dulbecco minimum essential medium from Life Technologie Sarl) with 10% fetal calf serum (from Dutcher). Bromodeoxyuridine (BrdU) was added to the nutrient medium; it was incorporated into the DNA and later served for detection of the DNA fragments in the cytoplasm. After an incubation period of two days, the nutrient medium was replaced by nutrient medium (DMEM) without fetal calf serum. The active substance to be tested was added. For comparison, a cell sample without active substance to be tested was incubated.
After a further incubation period of one or two days at 37° C., the cells were recovered by trypsinization according to the method of Dunnebacke and Zitcer described in: Cell and tissue culture, Ed.: J. Paul, Churchill Livingstone, 1975, p. 226. After the trypsinization, the cells were centrifuged and counted. Then the content of BrdU in the DNA fragments from the cytoplasm was determined by means of the ELISA test (ELISA kit from Roche). The content of BrdU is a measure of the DNA fragments which have passed from the nucleus, the cell core, into the cytoplasm. The results were based on a million cells and given in percent in comparison to the control.

type I collagen = assay: Inhibition of the non-enzymatic glycation of collagen (Schiff's bases, fluorescence 430 nm); assay type: biochemical; details: type I collagen with glucose, 21 days at 45° C.; control with glucose 100, control without glucose 46
Description: Glycation is a non-enzymatic reaction of glucose or other sugars with proteins to form glycoproteins. This reaction leads to unintentional changes in the collagen and elastin and thus to changes in the extracellular matrix. The function of the collagen and the extracellular matrix is disrupted. The prevention according to the invention of glycation leads to a reduction in the non-enzymatic change in collagen and elastin and thus to the prevention of a reduced function of the extracellular matrix.
The suspensions were then centrifuged and the content of Schiff's bases in the supernatant liquid was determined by fluorescence measurement at 430 nm. The results are again based on the control as standards (without extract and without glucose).

human fibroblasts [3] = assay: DNA content of human fibroblasts (Desaulniers method); assay type: cell-based; details: 0.001 % w/v; for DNA after 6 d: compared to blank sample = 100, after 6 d; for DNA after 3 d: compared to blank sample = 100, after 3 d
Description: (§1) The enzyme glucose-6-phosphate dehydrogenase (G6PDH) catalyzes the first step of the so-called “pentose pathway”, in which an important DNA component, namely deoxyribose, is formed. Glucose 6-phosphate (G6P) is thereby converted into 6-phosphogluconate (6PG) by means of G6PDH. At the same time, the coenzyme NADP required thereby is reduced to NADPH2, which in turn is able to catalyze a large number of other biological reactions such as, for example, the recycling of glutathione or lipid synthesis. Reduced glutathione protects many enzymes which have SH groups and cells against oxidative stress, such as, for example, the action of UV. The G6PDH content is thus an important parameter for cell protection and skin renewal. G6PDH activity was determined in vitro on human fibroblasts by the enzymatic method of Okada, while the DNA content was determined by the Desaulniers method. The results of 3 series of measurements with triple determination are given in %-rel. compared to a blank sample.

[4] = system: glucose-6-phosphate dehydrogenase (G6PDH); assay: G6PDH activity in vitro on human fibroblasts (enzymatic method of Okada); assay type: cell-based; details: 0.001 % w/v; for G6PDH after 3 d: compared to blank sample = 100, after 3 d; for G6PDH after 6 d: compared to blank sample = 100, after 6 d
Description: as §1

pancreas elastase = pancreas elastase (Sus scrofa, UniProt P00772); assay: Inhibition of elastase activity (chromogenic labelled elastin substrate, OD 410 nm); assay type: biochemical; details: 0.3% by weight; 30 minutes at room temperature; relative to control = 0%
Chain of pancreas elastase (P00772 27-266): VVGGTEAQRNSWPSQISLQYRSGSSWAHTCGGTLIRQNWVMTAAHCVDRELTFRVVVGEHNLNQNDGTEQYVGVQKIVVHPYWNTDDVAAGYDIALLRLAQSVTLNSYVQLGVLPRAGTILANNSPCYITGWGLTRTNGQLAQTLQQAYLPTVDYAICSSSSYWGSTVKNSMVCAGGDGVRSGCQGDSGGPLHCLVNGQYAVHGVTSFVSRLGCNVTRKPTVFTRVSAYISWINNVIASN
Procedure: Elastase is a protease which is secreted by the fibroblasts under inflammatory conditions and is jointly responsible for the degradation of dermal macromolecules, such as, for example, collagen and elastin, and thus for skin ageing.
In order to determine the effectiveness of the plant extract in inhibiting the release of elastase, pancreas elastase (a serine protease) was studied and, as substrate, elastin was labeled with a chromogenic synthetic substrate. The system was incubated with the active ingredients for 30 minutes at room temperature and then, after centrifugation, the optical density of the dye at 410 nm was determined. The amount of extracts used was 0.3% by weight. The results were given relative to a control as standard (=0%); al-antitrypsin was used as the standard.

Compound | Density, 14 days (human fibroblasts [1]; 14 days) | Content of DNA fragments [2] | Inhibition of the glycation of collagen, Inhibition [%] (type I collagen) | DNA after 6 d (human fibroblasts [3]) | Area, 7 days (human fibroblasts [1]; collagen gel area, 7 days) | Area, 14 days (human fibroblasts [1]; collagen gel area, 14 days) | GAG content, 7 days (human fibroblasts [1]; relative value of the gray stage (0=white to 255=black), perifibroblast area, 7 days) | GAG content, 14 days (human fibroblasts [1]; relative value of the gray stage (0=white to 255=black), perifibroblast area, 14 days) | Cell count ([2]; medium without fetal calf serum) | G6PDH after 3 d [4] | G6PDH after 6 d [4] | DNA after 3 d (human fibroblasts [3]) | Elastase inhibition, Inhibition [%] (pancreas elastase)
NCCC(=O)N[C@@H](Cc1cnc[nH]1)C(=O)O [L-Carnosine] | 0.25 | 85% | 68% | 120 %-rel. |  |  |  |  |  |  |  |  | 
Cl.NCCC(=O)NCCc1cnc[nH]1 [Carnicine*HCl] | 0.25 | 88% | 65% | 118 %-rel. | 9.9 cm2 | 5.8 cm2 | 11.8 | 13.3 | 118% | 104 %-rel. | 109 %-rel. | 106 %-rel. | 28%
CCCCC(CC)COC(=O)C(C#N)=C(c1ccccc1)c1ccccc1 (stereo not drawn) [Octocrinyl, reference compound] |  |  |  | 90 %-rel. |  |  |  |  |  | 89 %-rel. | 85 %-rel. | 95 %-rel. | 
